The NIST ThermoML archive (doi:10.1016/j.fluid.2019.02.006)
Numbers after ± are expanded uncertainties. Values belong to the compound of their own block, whether it stands above or below them.

Columns and labels:
[1] = 298.15 K; 100 kPa; Liquid; Vibrating tube method
[2] = xn = mol fraction of the nth substance listed; conditions: 298.15 K, 100 kPa, Liquid, Vibrating tube method

Structure (SMILES): CCCCCCCCCO [nonan-1-ol]
mass density [1]: 824 ± 1 kg/m3

Structure (SMILES): CCCCCCCCCO [nonan-1-ol] + C1CCCCC1
mass density ([2]; x2 = 0): 824 ± 1 kg/m3
mass density ([2]; x2 = 0.0817): 821.1 ± 1 kg/m3
mass density ([2]; x2 = 0.1605): 818 ± 1 kg/m3
mass density ([2]; x2 = 0.2409): 814.7 ± 1 kg/m3
mass density ([2]; x2 = 0.3496): 810 ± 1 kg/m3
mass density ([2]; x2 = 0.4399): 805.8 ± 1 kg/m3
mass density ([2]; x2 = 0.5606): 799.8 ± 1 kg/m3
mass density ([2]; x2 = 0.6497): 795.1 ± 1 kg/m3
mass density ([2]; x2 = 0.7406): 790 ± 1 kg/m3
mass density ([2]; x2 = 0.8497): 783.6 ± 1 kg/m3
mass density ([2]; x2 = 0.9403): 777.8 ± 1 kg/m3

Structure (SMILES): CCCCCCO [hexan-1-ol] + C1CCCCC1
mass density ([2]; x2 = 0): 815.1 ± 1 kg/m3
mass density ([2]; x2 = 0.0811): 811.6 ± 1 kg/m3
mass density ([2]; x2 = 0.1597): 808.2 ± 1 kg/m3
mass density ([2]; x2 = 0.2415): 804.6 ± 1 kg/m3
mass density ([2]; x2 = 0.3498): 799.8 ± 1 kg/m3
mass density ([2]; x2 = 0.4412): 795.8 ± 1 kg/m3
mass density ([2]; x2 = 0.5588): 790.7 ± 1 kg/m3
mass density ([2]; x2 = 0.65): 786.8 ± 1 kg/m3
mass density ([2]; x2 = 0.7404): 783.2 ± 1 kg/m3
mass density ([2]; x2 = 0.8499): 778.8 ± 1 kg/m3
mass density ([2]; x2 = 0.9398): 775.6 ± 1 kg/m3

Structure (SMILES): CCCCCO [pentan-1-ol]
mass density [1]: 810.8 ± 1 kg/m3

Structure (SMILES): CCCCCO [pentan-1-ol] + C1CCCCC1
mass density ([2]; x2 = 0): 810.8 ± 1 kg/m3
mass density ([2]; x2 = 0.081): 807.1 ± 1 kg/m3
mass density ([2]; x2 = 0.1607): 803.6 ± 1 kg/m3
mass density ([2]; x2 = 0.2403): 800.1 ± 1 kg/m3
mass density ([2]; x2 = 0.3487): 795.4 ± 1 kg/m3
mass density ([2]; x2 = 0.4396): 791.7 ± 1 kg/m3
mass density ([2]; x2 = 0.5597): 787 ± 1 kg/m3
mass density ([2]; x2 = 0.6498): 783.7 ± 1 kg/m3
mass density ([2]; x2 = 0.7408): 780.6 ± 1 kg/m3
mass density ([2]; x2 = 0.8499): 777.1 ± 1 kg/m3
mass density ([2]; x2 = 0.9406): 774.8 ± 1 kg/m3

Structure (SMILES): CCCCCCO [hexan-1-ol]
mass density [1]: 815.1 ± 1 kg/m3

Structure (SMILES): CCCCCCCCO [octan-1-ol]
mass density [1]: 821.4 ± 1 kg/m3

Structure (SMILES): CCCCCCCO [heptan-1-ol] + C1CCCCC1
mass density ([2]; x2 = 0): 818.7 ± 1 kg/m3
mass density ([2]; x2 = 0.0805): 815.5 ± 1 kg/m3
mass density ([2]; x2 = 0.1601): 812.1 ± 1 kg/m3
mass density ([2]; x2 = 0.2392): 808.7 ± 1 kg/m3
mass density ([2]; x2 = 0.3503): 803.7 ± 1 kg/m3
mass density ([2]; x2 = 0.4391): 799.7 ± 1 kg/m3
mass density ([2]; x2 = 0.5604): 794 ± 1 kg/m3
mass density ([2]; x2 = 0.6502): 789.8 ± 1 kg/m3
mass density ([2]; x2 = 0.7396): 785.7 ± 1 kg/m3
mass density ([2]; x2 = 0.8497): 780.5 ± 1 kg/m3
mass density ([2]; x2 = 0.94): 776.4 ± 1 kg/m3

Structure (SMILES): CCCCCCCCO [octan-1-ol] + C1CCCCC1
mass density ([2]; x2 = 0): 821.4 ± 1 kg/m3
mass density ([2]; x2 = 0.0815): 818.3 ± 1 kg/m3
mass density ([2]; x2 = 0.1602): 815.1 ± 1 kg/m3
mass density ([2]; x2 = 0.2408): 811.7 ± 1 kg/m3
mass density ([2]; x2 = 0.3494): 806.9 ± 1 kg/m3
mass density ([2]; x2 = 0.4398): 802.7 ± 1 kg/m3
mass density ([2]; x2 = 0.5605): 796.8 ± 1 kg/m3
mass density ([2]; x2 = 0.6496): 792.4 ± 1 kg/m3
mass density ([2]; x2 = 0.7404): 787.8 ± 1 kg/m3
mass density ([2]; x2 = 0.8495): 782 ± 1 kg/m3
mass density ([2]; x2 = 0.94): 777 ± 1 kg/m3

Now from value to compound:

mass density [1]: 773.6 ± 1 kg/m3
Structure (SMILES): C1CCCCC1 [cyclohexane]

mass density ([2]; x1 = 1): 773.6 ± 1 kg/m3
Structure (SMILES): C1CCCCC1 [cyclohexane] + CCCCCCCCCCO

mass density ([2]; x1 = 1): 773.6 ± 1 kg/m3
Structure (SMILES): C1CCCCC1 [cyclohexane] + CCCCCCCCO

mass density ([2]; x1 = 1): 773.6 ± 1 kg/m3
Structure (SMILES): C1CCCCC1 [cyclohexane] + CCCCCCCCCO

mass density ([2]; x1 = 1): 773.6 ± 1 kg/m3
Structure (SMILES): C1CCCCC1 [cyclohexane] + CCCCCO

mass density ([2]; x1 = 1): 773.6 ± 1 kg/m3
Structure (SMILES): C1CCCCC1 [cyclohexane] + CCCCCCCO

mass density [1]: 818.7 ± 1 kg/m3
Structure (SMILES): CCCCCCCO [heptan-1-ol]

mass density ([2]; x1 = 1): 773.6 ± 1 kg/m3
Structure (SMILES): C1CCCCC1 [cyclohexane] + CCCCCCO

mass density [1]: 826.1 ± 1 kg/m3
Structure (SMILES): CCCCCCCCCCO [decan-1-ol]

mass density ([2]; x2 = 0): 826.1 ± 1 kg/m3
mass density ([2]; x2 = 0.0819): 823.7 ± 1 kg/m3
mass density ([2]; x2 = 0.1596): 820.8 ± 1 kg/m3
mass density ([2]; x2 = 0.2401): 817.6 ± 1 kg/m3
mass density ([2]; x2 = 0.3482): 812.9 ± 1 kg/m3
mass density ([2]; x2 = 0.4395): 808.7 ± 1 kg/m3
mass density ([2]; x2 = 0.5598): 802.6 ± 1 kg/m3
mass density ([2]; x2 = 0.6498): 797.6 ± 1 kg/m3
mass density ([2]; x2 = 0.7404): 792.3 ± 1 kg/m3
mass density ([2]; x2 = 0.849): 785.2 ± 1 kg/m3
mass density ([2]; x2 = 0.9394): 778.6 ± 1 kg/m3
Structure (SMILES): CCCCCCCCCCO [decan-1-ol] + C1CCCCC1
